The values below come from patent US20130172294A1, “Treatment with VB-201” (Vascular Biogenics Ltd., priority 2010, published 2013).

Entries after “also recorded” stand apart in the source; their conditions may differ. Where two headings read alike, the source gives them in different places.

In series [1] the test system is Human monocytes (CD14+ cells). As to the method:
Human monocytes (CD14^+ cells) were isolated from whole blood of healthy donors. Following PBMC (peripheral blood mononuclear cell) separation from whole blood using Ficoll-Paque and leucosep tubes, CD14^+ cells were separated using specific CD14 micro beads (Miltenyi Biotech). Purity of the CD14^+ population was validated using specific monoclonal CD14 antibody by FACS analysis. For chemoattractant, RANTES (100 ng/ml), MIP-1α (macrophage inflammatory protein-1a; 50 ng/ml), MCP-1 (monocyte chemotactic protein-1; 50 ng/ml) or MCP-3 (50 ng/ml) were dissolved in 2% fetal bovine serum/RPMI-1640 and placed at the lower chamber of QCM™ 24-well migration assay plate (Corning-Costar). CD14+ cells were pre-incubated for 30 minutes with solvent (1% ethanol/PBS) or VB-201 at 8 μM (or different concentrations ranging between 1.7-17 μM, not shown). Migration assay was conducted by seeding 300,000 treated cells in the upper chamber, followed by incubated for 3-4 hours, after which the number of migrated cells was determined by FACS (fluorescence activated cell sorting).
VB-201 was tested in vitro as described hereinabove for possible effects on migration of human primary monocytes towards inflammatory chemokines using a trans-well assay. For a broad analysis, several chemoattractants which serve as ligands for different chemokine receptors were used. Two assays were performed in triplicates for each chemoattractant.

Series [2] is described as follows: Safety and tolerability, food and coating study (Example 3). The series is classed as in vivo, human. The source says:
Safety and tolerability of VB-201 was judged by evaluating the incidence of abnormal findings in the following measurements: vital signs: systolic and diastolic blood pressure, heart rate, respiratory rate, body temperature; physical examination; 12-lead electrocardiogram; laboratory tests of blood samples for: complete blood count, prothrombin time/partial thromboplastin time, LDL- and HDL-cholesterol, total cholesterol, triglycerides, glucose, blood urea nitrogen, sodium, potassium, creatinine, calcium, phosphorus, creatinine phosphokinase, lactate dehydrogenase, aspartate transaminase, alanine transaminase, γ-glutamyl transferase, alkaline phosphatase, protein, albumin, total bilirubin, total IgM and IgG antibodies, interleukin-12/23 p40, tumor necrosis factor-α, and interleukin-6, as well as routine urinalysis; and all adverse events, whether or not considered serious, and whether or not considered related to the investigational agent, according to the criteria for Good Clinical Practice. Treatment-emergent adverse events were defined as any adverse event that started on or after administration of the first dose of VB-201, and no more than 30 days after administration of the last dose, or are ongoing at the time of the first dose and worsened in severity or frequency during treatment. […]

A further series has as its system C-reactive protein (CRP). As to the method: C-reactive protein (CRP) levels in plasma samples were measured using a CRP Latex assay kit (Olympus) and an AU400® immuno-analyzer (Olympus).
A randomized, double-blind, placebo-controlled study was performed to in order to investigate the safety, tolerability and pharmacokinetics of VB-201 at a repeated, daily dose taken orally. The subjects were all healthy volunteers. Cohorts of six subjects each received a daily dose of 40 or 80 mg VB-201 in the morning, following at least 10 hours of fasting, for 14 days. 6 subjects received a placebo. The VB-201 was formulated in non-enterocoated capsules.
Further studies were performed on an additional cohort, which included six subjects receiving a daily dose of 80 mg VB-201, as described hereinabove, for 28 days. An additional two subjects received a placebo.
Plasma samples obtained on day 0 (pre-dosing) and on day 14 from the subjects in each cohort (40 mg for 14 days, 80 mg for 14 days, and 80 mg for 28 days), and on day 28 from the subjects of the cohort receiving 80 mg VB-201 for 28 days, were assayed for C-reactive protein (CRP) by the high sensitivity CRP assay described hereinabove.

A short description of series [3]: Safety and tolerability of repeated doses 40 and 80 mg (Example 4). The class given is in vivo, human. The source says: Safety and tolerability of VB-201 was judged by evaluating the incidence of abnormal findings in the following measurements: vital signs: systolic and diastolic blood pressure, heart rate, respiratory rate, body temperature; physical examination; 12-lead electrocardiogram; laboratory tests of blood samples for: complete blood count, prothrombin time/partial thromboplastin time, LDL- and HDL-cholesterol, total cholesterol, triglycerides, glucose, blood urea nitrogen, sodium, potassium, creatinine, calcium, phosphorus, creatinine phosphokinase, lactate dehydrogenase, aspartate transaminase, alanine transaminase, γ-glutamyl transferase, alkaline phosphatase, protein, albumin, total bilirubin, total IgM and IgG antibodies, interleukin-12/23 p40, tumor necrosis factor-α, and interleukin-6, as well as routine urinalysis; and all adverse events, whether or not considered serious, and whether or not considered related to the investigational agent, according to the criteria for Good Clinical Practice. Treatment-emergent adverse events were defined as any adverse event that started on or after administration of the first dose of VB-201, and no more than 30 days after administration of the last dose, or are ongoing at the time of the first dose and worsened in severity or frequency during treatment. […] The subjects were all healthy volunteers. […] 6 subjects received a placebo. […]

The subject of another series is interleukin-23 (IL-23). Kind of series: Plasma cytokine assay, IL-23 (Example 5). The series is classed as in vivo, human. Here is the method: Acquisition of samples was performed using FacsCalibur (Becton Dickinson).

For `CCCCCCCCCCCCCCCCOCC(COP(=O)([O-])OCC[N+](C)(C)C)OCCCCC(=O)O` (centres unmarked) [VB-201, 1-hexadecyl-2-(4′-carboxybutyl)-glycerol-3-phosphocholine], the “migration of human primary monocytes towards MCP-1” value in series [1] (8 μM VB-201, 30 min pre-treatment, MCP-1 50 ng/ml) is reported as “significantly (P<0.05) reduced”. In series [1] (8 μM VB-201, 30 min pre-treatment, MCP-3 50 ng/ml), the “migration of human primary monocytes towards MCP-3” value is “significantly (P<0.05) reduced”. The “migration of human primary monocytes towards MIP-1α” value in series [1] (8 μM VB-201, 30 min pre-treatment, MIP-1α 50 ng/ml) was “significantly (P<0.05) reduced”. In addition, the “migration of human primary monocytes towards RANTES” value in series [1] (8 μM VB-201, 30 min pre-treatment, RANTES 100 ng/ml) is “significantly (P<0.05) reduced”. The “dose dependence of inhibition of monocyte migration” value in series [1] (in vitro, 1.7-17 μM) was “dose-dependent”. Also, the safety and tolerability result in series [2] (enteric coated and non-coated capsules, 10 to 20 mg, fasting or fed) was “as safe and tolerable as placebo”; in series [3] (daily doses of up to 80 mg for up to 28 days), “both safe and well-tolerated; also recorded: well-tolerated by subjects, and no substantial toxicity was observed”. For the same molecule, in series [2] (single dose 10-20 mg, coated and non-coated, fed and fasting), the “serious or treatment-emergent adverse events” value is given as “No serious or treatment-emergent adverse events occurred”. The “reduction of plasma CRP levels” value in the series with C-reactive protein (CRP) (40 mg per day for 14 days) was 49%; in the series on C-reactive protein (CRP) (80 mg per day for 14 days), 43%; with C-reactive protein (CRP) (80 mg per day for 28 days), 45%. Moreover, the serious adverse events result in series [3] (daily 40 or 80 mg, 14 or 28 day cohorts) was “No serious adverse events were reported”. Also, the IL-23 plasma levels result in the series on interleukin-23 (IL-23) (40 mg per day, 14 days, both subjects with detectable pre-dose IL-23) was “considerably reduced”; in the series with interleukin-23 (IL-23) (80 mg per day, 28 days, all three subjects), “considerably reduced”.
